The test system of assay [1] is Candida albicans. In words: microbe, parasite or virus in culture. The following applies: MTCC 3017, 24 h.
Description: Antimicrobial activity against Candida albicans MTCC 3017 after 24 hrs by well diffusion method
Assay [2] relates to Mycobacterium tuberculosis. In words: Ratio of linezolid MIC to compound MIC for Mycobacterium tuberculosis H37Rv after 3 weeks by broth dilution method. In kind it is functional. For orientation: In broth dilution the organism is exposed to a series of concentrations in liquid medium.
The subject of assay [3] is Raoultella planticola. Nature of the assay: Antimicrobial activity against Klebsiella planticola MTCC 530 after 24 hrs by well diffusion method. In kind it is functional. The following applies: MTCC 530, 24 h. For orientation: Agar diffusion results depend on both activity and mobility in agar.
Assay [4] relates to Pseudomonas aeruginosa. In words: Antimicrobial activity against Pseudomonas aeruginosa MTCC 2453 after 24 hrs by well diffusion method. In kind it is functional. The following applies: MTCC 2453, 24 h.
Assay [5] has as its system Escherichia coli. Nature of the assay: Antimicrobial activity against Escherichia coli MTCC 739 after 24 hrs by well diffusion method. In kind it is functional. The settings on record: MTCC 739, 24 h.
In assay [6] the test system is Bacillus subtilis. In words: Antimicrobial activity against Bacillus subtilis MTCC 121 after 24 hrs by well diffusion method. In kind it is functional. The settings on record: MTCC 121, 24 h.
Assay [7] deals with Staphylococcus aureus. In words: Antimicrobial activity against Staphylococcus aureus MLS-16 MTCC 2940 after 24 hrs by well diffusion method. The assay is classed as functional. The settings on record: MLS-16 MTCC 2940, 24 h.
For assay [8], the system named is Micrococcus luteus. Nature of the assay: Antimicrobial activity against Micrococcus luteus MTCC 2470 after 24 hrs by well diffusion method. The assay is classed as functional. The settings on record: MTCC 2470, 24 h.
The subject of assay [9] is Staphylococcus aureus. In words: Antimicrobial activity against Staphylococcus aureus MTCC 96 after 24 hrs by well diffusion method. In kind it is functional. The settings on record: MTCC 96, 24 h.
The test system of assay [10] is Vero. Nature of the assay: Cytotoxicity against african green monkey Vero cells. The assay is classed as cell-based. The settings on record: Chlorocebus sabaeus.
Assay [11] has as its system MRC5. Nature of the assay: Cytotoxicity against human MRC5 cells. The assay is classed as cell-based.
The test system of assay [12] is Mycobacterium tuberculosis. In words: Antimicrobial activity against Mycobacterium tuberculosis H37Rv after 3 weeks by broth dilution method. In kind it is functional. The following applies: 504 h.
The subject of assay [13] is Raoultella planticola. Nature of the assay: Antibiofilm activity against Klebsiella planticola MTCC 530 after 24 hrs by crystal violet assay. The assay is classed as functional, organism-based. The settings on record: MTCC 530, 24 h.
For assay [14], the system named is Staphylococcus aureus. Nature of the assay: Antibiofilm activity against Staphylococcus aureus MLS-16 MTCC 2940 after 24 hrs by crystal violet assay. The assay is classed as functional, organism-based. The following applies: MLS-16 MTCC 2940, 24 h.
Assay [15] deals with Staphylococcus aureus. Nature of the assay: Antibiofilm activity against Staphylococcus aureus MTCC 96 after 24 hrs by crystal violet assay. The assay is classed as functional, organism-based. The following applies: MTCC 96, 24 h.
Assay [16] concerns Staphylococcus aureus. Nature of the assay: Antimicrobial activity against methicillin-resistant Staphylococcus aureus after 24 hrs by microdilution method. In kind it is functional.
Assay [17] deals with Candida albicans. In words: Antimicrobial activity against Candida albicans MTCC 3017 at 150 ug/ml after 24 hrs by well diffusion method. The assay is classed as functional, organism-based.
Assay [18] has as its system Raoultella planticola. Nature of the assay: Bactericidal activity against Klebsiella planticola MTCC 530 after 24 hrs. In kind it is functional. The settings on record: MTCC 530, 24 h.
Assay [19] has as its system Pseudomonas aeruginosa. Nature of the assay: Bactericidal activity against Pseudomonas aeruginosa MTCC 2453 after 24 hrs. The assay is classed as functional. The settings on record: MTCC 2453, 24 h.
Assay [20] deals with Escherichia coli. In words: Bactericidal activity against Escherichia coli MTCC 739 after 24 hrs. The assay is classed as functional. The following applies: MTCC 739, 24 h.
Assay [21] deals with Bacillus subtilis. In words: Bactericidal activity against Bacillus subtilis MTCC 121 after 24 hrs. In kind it is functional. The settings on record: MTCC 121, 24 h.
For assay [22], the system named is Staphylococcus aureus. Nature of the assay: Bactericidal activity against Staphylococcus aureus MLS-16 MTCC 2940 after 24 hrs. The assay is classed as functional. The settings on record: MLS-16 MTCC 2940, 24 h.
Assay [23] relates to Staphylococcus aureus. Nature of the assay: Bactericidal activity against Staphylococcus aureus MTCC 96 after 24 hrs. In kind it is functional. The following applies: MTCC 96, 24 h.
In assay [24] the test system is Enterococcus faecalis. Nature of the assay: Antimicrobial activity against vancomycin -resistant Enterococcus faecalis after 24 hrs by microdilution method. The assay is classed as functional.
Assay [25] has as its system Micrococcus luteus. In words: Bactericidal activity against Micrococcus luteus MTCC 2470 after 24 hrs. The assay is classed as functional. The settings on record: MTCC 2470, 24 h.

The structures appear in SMILES notation. In brackets after ≈: the same amount, converted by molar mass. Activity calls are given as the source filed them. No cut-off for these calls is given here. Where only a bound is given, the exact number is not on record here.

In assay [1], `Clc1ccc(COC(Cn2ccnc2)c2ccc(Cl)cc2Cl)c(Cl)c1` (stereo not drawn) [MICONAZOLE] showed an MIC of 9.37 µg/mL (≈ 22.5 µM).
For orientation: IC50 means the concentration needed to halve the response being measured. What is called MBC is the lowest tested concentration that kills the bacteria rather than only halting them. In the case of `O=C(NCc1cn(Cc2ccc(F)c(Cl)c2)nn1)c1ccc([N+](=O)[O-])o1`, the Ratio in [2] was found to be 4. Besides, the MIC in assay [3] was 18.8 µg/mL (≈ 49.4 µM); in [4] it was above 150 µg/mL; in assay [5], 18.8 µg/mL (≈ 49.4 µM); in assay [6], 1.17 µg/mL (≈ 3.08 µM); in assay [7], 2.34 µg/mL (≈ 6.16 µM); in assay [8], 2.34 µg/mL (≈ 6.16 µM). Besides, the MIC was 18.8 µg/mL (≈ 49.4 µM) in assay [9], 0.25 µg/mL (≈ 0.658 µM) in [12], 8 µg/mL (≈ 21.1 µM) in [16] and above 64 µg/mL in assay [24]. The IC50 in [10] came out at 344 µM; in assay [11], 254 µM; in [13], 12.2 µg/mL (≈ 32.1 µM); in [14], 1.1 µg/mL (≈ 2.9 µM); in assay [15] it was 13.6 µg/mL (≈ 35.8 µM). For the same compound, the outcome in [17] was inactive. Moreover, the MBC in [18] is 37.5 µg/mL (≈ 98.8 µM); in [19], above 150 µg/mL; in assay [20], 18.8 µg/mL (≈ 49.4 µM); in assay [21], 1.17 µg/mL (≈ 3.08 µM); in assay [22] it was 2.34 µg/mL (≈ 6.16 µM); in assay [23] it was 18.8 µg/mL (≈ 49.4 µM). In addition, in assay [25], the MBC was 2.34 µg/mL (≈ 6.16 µM).
Turning to `O=C(NCc1cn(Cc2cccc([N+](=O)[O-])c2)nn1)c1ccc([N+](=O)[O-])o1`, the MIC in [3] was 18.8 µg/mL (≈ 50.4 µM); in [4], above 150 µg/mL; in assay [5] it was 9.37 µg/mL (≈ 25.2 µM); in assay [6], 2.34 µg/mL (≈ 6.29 µM); in assay [7] it was 1.17 µg/mL (≈ 3.14 µM); in [8], 4.68 µg/mL (≈ 12.6 µM). Also, the MIC was above 150 µg/mL in [9], 8 µg/mL (≈ 21.5 µM) in assay [12], 8 µg/mL (≈ 21.5 µM) in [16] and above 64 µg/mL in assay [24]. For the same compound, the IC50 in assay [10] came to 326 µM; in assay [11], 199 µM; in assay [13], 14.5 µg/mL (≈ 38.9 µM); in [14], 0.8 µg/mL (≈ 2.15 µM); in assay [15], 84.5 µg/mL (≈ 227 µM). The outcome in [17] was inactive. Also, the MBC is 37.5 µg/mL (≈ 101 µM) in [18]; above 150 µg/mL in assay [19]; 18.8 µg/mL (≈ 50.4 µM) in [20]; 4.68 µg/mL (≈ 12.6 µM) in assay [21]; 2.34 µg/mL (≈ 6.29 µM) in assay [22]; above 150 µg/mL in assay [23]. The same compound returned an MBC in assay [25] of 9.37 µg/mL (≈ 25.2 µM).

For the origin of these results see ChEMBL document CHEMBL3091424, “Anti-tubercular agents. Part 8: synthesis, antibacterial and antitubercular activity of 5-nitrofuran based 1,2,3-triazoles” (Bioorg Med Chem Lett, 2013).
